Assay results reported in patent US20070098900A1, “Media providing non-contacting formation of high contrast marks and method of using same, composition for forming a laser-markable coating, a laser-markable material and process of forming a marking” (FUJI HUNT PHOTOGRAPHIC CHEMICALS, INC., priority 2004, published 2007).

Assay: Solubility of electron donor dye precursors in ethyl acetate
Type: physicochemical
Text: For reference, the following Table 1 lists electron donor dye precursor compounds, and includes the corresponding solubility in ethyl acetate, which are used in the following examples.

Structure (SMILES) | Solubility in ethyl acetate [g/100 grams]
CCN(CC)c1ccc2c(c1)Oc1cc(C)ccc1C21OC(=O)c2ccccc21 [Sample D-2] | 5
CCN(CC)c1ccc2c(c1)Oc1cc(C)c(Nc3ccccc3)cc1C21OC(=O)c2ccccc21 [Sample D-3] | 4
CCCCCCOc1ccc2c(c1)Oc1cc(OCCCCCC)ccc1C21OC(c2cccs2)=Nc2ccccc21 [Sample D-5] | 20
